Results taken from PubChem BioAssay AID1626 (SRMLSC, 2009).
pIC50: −log10 of the molar value.

Test system: M. tuberculosis H37Rv growth inhibition
Test: M. tuberculosis H37Rv growth inhibitors, H37Rv strain (AID 1626)
Settings: for CC50: measured here: Vero cell cytotoxicity; for IC90: measured here: IC90 against H37Rv

O=C(NCc1ccc(F)cc1)C(=O)Nc1nc(C23CC4CC(CC(C4)C2)C3)cs1
CC50: 21.4 µM

Cc1ccc(-c2cc(C(=O)Nc3nccs3)c3ccccc3n2)c(C)c1
pIC50: 5.02 | IC90: 11.9 µM | CC50: > 40 µM

Cc1nn(-c2ccccc2)c2c1C(c1ccc([N+](=O)[O-])cc1)N1C(=N2)C(=O)Nc2ccccc21 (stereo not given)
pIC50: 4.72 | IC90: > 100 µM | CC50: > 40 µM

N#CCc1ccc(NC(=O)/C=C/c2ccc([N+](=O)[O-])o2)cc1
pIC50: > 6.41 | IC90: < 0.391 µM | CC50: 0.277 µM

Nc1cnc(-c2ccccc2)nc1Cl
pIC50: 5.14 | IC90: > 100 µM

Cc1ccc(-n2cc(C(=O)c3ccc(N4CCN(C)CC4)cc3)nn2)cc1Cl
pIC50: > 6.41 | IC90: 4.59 µM | CC50: 12 µM

c1ccc2c(NC3C4CC5CC(C4)CC3C5)nc(N3CCOCC3)nc2c1 (stereo not given)
pIC50: 5.72 | IC90: 3.08 µM | CC50: 27.9 µM

O=C(CNC(=O)/C(=C\c1ccc(Br)cc1)NC(=O)c1ccccc1)OCc1ccccc1
pIC50: 5.72 | IC90: 3.33 µM | CC50: 13 µM

Cc1nc(Nc2ccc(Cl)c(Cl)c2)sc1C(=O)Nc1ccccc1
pIC50: 4.84 | IC90: 38 µM | CC50: 20.9 µM

CCOC(=O)COc1cc2c3c(c(=O)oc2cc1C)CCCC3
pIC50: 5.80 | IC90: 10.4 µM

c1ccc(-c2nc(NCCCn3ccnc3)c3ccccc3n2)cc1
pIC50: 5.23 | IC90: 8.05 µM | CC50: > 40 µM

Cc1cc(=O)[nH]c(-n2nc(C)c(Oc3ccccc3O)c2C)n1
pIC50: 5.11 | IC90: > 100 µM | CC50: > 40 µM

CN(c1ccccc1)c1nc(N2CCCC2)nc(-n2ccnc2)n1
pIC50: 5.52 | IC90: 3.54 µM | CC50: > 40 µM

O=C(CCl)N(c1ccccc1)c1c[nH]c2ccccc12
pIC50: 5.42 | IC90: 8.14 µM | CC50: 0.995 µM

CN(C)c1ccc(C(=O)Nc2nnc(-c3ccc(Cl)cc3)o2)cc1
pIC50: 6.05 | IC90: > 100 µM | CC50: > 40 µM

COCCCN=C1NN=C(c2cc(C)n(Cc3ccccc3Cl)c2C)CS1
pIC50: 4.95 | IC90: 12.1 µM | CC50: 16.3 µM

CC[C@H]1CC2CN3CCc4c([nH]c5c([C@H]6C[C@H]7[C@H](CC)CN(C)[C@@H](Cc8c6[nH]c6ccccc86)[C@H]7C(=O)OC)c(OC)ccc45)C(C(=O)OC)(C2)C13
pIC50: 5.23 | IC90: 7.6 µM | CC50: 20.8 µM

O=C(Nc1nc(-c2ccccn2)cs1)C12CC3CC(CC(O)(C3)C1)C2
pIC50: 5.44 | IC90: 7.8 µM | CC50: > 40 µM

Cc1ccc(Nc2ccccc2N)cc1
pIC50: 5.84 | IC90: 1.66 µM

Cc1cc(-c2c(C)[nH]n(-c3ccccc3)c2=O)n[nH]1
pIC50: 4.98 | IC90: > 100 µM | CC50: 36.2 µM

C=C1C(=O)[C@@]23[C@H](O)C[C@@H]4C(C)(C)CC[C@H](O)[C@@]4(C)[C@@H]2CC[C@@H]1[C@H]3O
pIC50: 5.06 | IC90: 14.6 µM | CC50: 5.78 µM

CCOC(=O)CSc1nc(N)c(C#N)c(-c2cccs2)c1C#N
pIC50: 5.80 | IC90: 3.27 µM

CC(C)N1C(=O)NC(=O)C2(Cc3cc([N+](=O)[O-])ccc3N(C)C2c2ccccc2)C1=O (stereo not given)
pIC50: 4.75 | IC90: 52.1 µM | CC50: > 40 µM

COc1ccc(N2CCN(c3nc(-c4cccs4)nc4ccccc34)CC2)cc1
IC90: > 100 µM

Nc1nc(CCOc2ccc(F)cc2)cs1
pIC50: 4.65 | IC90: > 100 µM

CCCCOC(=O)c1ccc(NC(=O)C(=O)NCc2cccnc2)cc1
pIC50: 4.66 | IC90: > 100 µM

COc1ccc(N=Cc2c(O)c3ccccc3oc2=O)cc1
IC90: > 100 µM | CC50: > 40 µM

CCn1c(NC(=O)c2nn(C)cc2Br)nc2ccccc21
pIC50: 5.18 | IC90: 13.2 µM | CC50: > 40 µM

CCOC(=O)c1ccc(NC(=O)CCOc2ccc(C)cc2)cc1
pIC50: 4.68 | IC90: > 100 µM

Cc1nc(N2CCN(c3ccccn3)CC2)c2c(C)c(C(=O)Nc3ccccc3F)sc2n1
pIC50: 5.05 | IC90: > 100 µM | CC50: > 40 µM

Oc1cccc(-c2nc3ccc4ccccc4c3c3c2CCC3)c1
pIC50: 4.78 | IC90: 27 µM | CC50: > 40 µM

Nc1ncnc2c1ccn2[C@@H]1O[C@H](CO)[C@@H](O)[C@H]1O
pIC50: 5.61 | IC90: 3.87 µM | CC50: 0.131 µM

O=C(CCCSc1ccccc1)Nc1nc(-c2ccccn2)cs1
pIC50: 6.62 | IC90: 5.04 µM | CC50: > 40 µM

Cc1ccc2c(c1C)NC(=O)C21N2CCCC2C(C(=O)c2ccc3ccccc3c2)C12C(=O)Nc1ccccc12 (stereo not given)
pIC50: 4.41 | IC90: > 100 µM | CC50: > 40 µM

COC(=O)c1nc(-c2ccc3c(n2)C(=O)C(N)=C(OC)C3=O)c(N)c(-c2ccc(OC)c(OC)c2O)c1C
IC90: > 100 µM | CC50: 1.35 µM

CCOc1ccc(N=Cc2c(O)n(-c3cccc(C)n3)c(=O)c3ccccc23)cc1
pIC50: 4.83 | IC90: > 100 µM

CC(C)CCN1C(=O)c2ccc(-c3nc4ccccc4c(=O)o3)cc2C1=O
pIC50: 5.28 | IC90: > 100 µM

Cc1cc(=O)oc2ccc(OC(=O)CC(C)C)cc12
IC90: > 100 µM

CCN(Cc1nc2ccccc2c(=O)[nH]1)Cc1nc2ccsc2c(=O)[nH]1
pIC50: 4.80 | IC90: > 100 µM | CC50: > 40 µM

CCN(CC)Cc1nc2c(c(=O)[nH]1)C1(CCCCC1)Cc1ccccc1-2
pIC50: 5.17 | IC90: > 100 µM

CCOC(=O)Cc1csc(NC(=O)c2csc3c2CCCC3)n1
pIC50: 5.04 | IC90: 12.5 µM | CC50: > 40 µM

COc1ccc(CCNc2cc(C)nc3c(-c4ccc(Cl)cc4)c(C)nn23)cc1OC
pIC50: 6.00 | IC90: 5.53 µM | CC50: > 40 µM

Cc1cccc(-c2noc(-c3cc4ccccc4oc3=O)n2)c1
pIC50: 5.89 | IC90: > 100 µM

CCCC(=O)N1CCN(c2ccc(NC(=O)c3ccc([N+](=O)[O-])o3)cc2Cl)CC1
pIC50: > 6.71 | IC90: < 0.195 µM | CC50: 1.8 µM

Cc1ccc(CNc2nc(-c3cccs3)nc3ccccc23)cc1
pIC50: 5.01 | IC90: 18.7 µM | CC50: > 40 µM

O=C(CSc1ccc(-c2ccccn2)nn1)c1ccc(F)cc1
pIC50: 4.65 | IC90: 36 µM

O=C(NC1CCCCC1)C(c1ccc2ncccc2c1)N(Cc1ccc2c(c1)OCO2)C(=O)c1ccc2c(c1)OCCO2 (stereo not given)
pIC50: 4.90 | IC90: > 100 µM | CC50: > 40 µM

CC1CCN(c2ccc(C=O)o2)CC1
pIC50: 4.25 | IC90: > 100 µM

Cc1ccc(NC(=O)c2ccc([N+](=O)[O-])o2)c(C)c1
pIC50: 5.18 | IC90: 11.2 µM | CC50: 13.4 µM

COc1cc(OC)c2c(-c3ccccc3)cc(=O)oc2c1C(CCN1CCCCC1)c1ccc2c(c1)OCO2 (stereo not given)
pIC50: 5.04 | IC90: 12.8 µM | CC50: 13.6 µM

CC1CC(C)CN(C(=O)COC(=O)c2cc3ccccc3cc2O)C1 (stereo not given)
pIC50: 6.23 | IC90: 4.29 µM

COc1ccc(C2NCCc3c2[nH]c2ccccc32)cc1COc1ccc(F)cc1 (stereo not given)
pIC50: 5.51 | IC90: 3.39 µM | CC50: 12.1 µM

Cc1nn2c(NCCCN(C)C)c3c(nc2c1-c1ccccc1)CCC3
pIC50: 4.34 | IC90: 50.1 µM | CC50: 23.2 µM

O=C(/C=C/Sc1ccccc1)c1ccc(Cl)cc1
pIC50: 5.19 | IC90: 11.2 µM | CC50: 26.1 µM

O=C(Nc1ccc(-c2nc3ccccc3c(=O)o2)cc1)c1ccco1
pIC50: > 6.71 | IC90: > 100 µM

O=C(/C=C/c1ccccc1)CC(=O)c1ccccc1O
pIC50: 4.63 | IC90: > 100 µM | CC50: > 40 µM

COC(=O)CCCn1c(C)cc(C(=O)CCl)c1C
pIC50: 5.26 | IC90: 18.4 µM | CC50: 21.1 µM

O=[N+]([O-])c1ccc(-n2nnnc2-c2ccccc2)c([N+](=O)[O-])c1
pIC50: 5.24 | IC90: 9.88 µM | CC50: 10.7 µM

CN1CCN(c2nc(-c3ccccc3)nc3c2oc2ccccc23)CC1
pIC50: 5.26 | IC90: 10.5 µM | CC50: 30 µM

C/C(=C\C(=S)Nc1ccccc1)Nc1ccc2ccccc2c1
pIC50: 5.36 | IC90: 48.9 µM | CC50: > 40 µM

Clc1ccc(SCc2cc(N3CCOCC3)nc(-c3ccccn3)n2)cc1
pIC50: 5.05 | IC90: 41.6 µM | CC50: 12.2 µM

COc1ccc(CNC(=O)c2c(C)nc3ccccn23)cc1
pIC50: 5.75 | IC90: 7.63 µM

CCS(=O)(=O)Nc1cccc(-c2cc(-c3ccccc3)c3cc(C)ccc3n2)c1
pIC50: 5.22 | IC90: 11.1 µM | CC50: > 40 µM

CC1CCCC(NCC(O)COC(c2ccc(F)cc2)c2ccc(F)cc2)C1C (stereo not given)
pIC50: 5.25 | IC90: 6.42 µM | CC50: 24.3 µM

Cc1ccc(-c2ccc(/C=N/c3ncn[nH]3)o2)cc1Cl
pIC50: 4.52 | IC90: > 100 µM

CC(C)c1ccc(Nc2nc(NCc3ccco3)nc(N3CCOCC3)n2)cc1
pIC50: 5.30 | IC90: 8.29 µM | CC50: 34.6 µM

O=C(CSCC(=O)Nc1ccc2ccccc2c1)NCc1ccccc1
pIC50: 4.45 | IC90: > 100 µM

Cc1cc(Nc2ccccc2)n(-c2nc3ccccc3[nH]2)n1
pIC50: > 6.71 | IC90: 3.18 µM | CC50: > 40 µM

Cc1ccccc1N=Nc1ccc(O)c2ncccc12
pIC50: 4.68 | IC90: > 100 µM | CC50: 0.933 µM

CC(C)Nc1cc(C(F)(F)F)nc(-c2ccccn2)n1
pIC50: 5.29 | IC90: > 100 µM

Nc1ccc2c(c1)oc1ccccc12
pIC50: 5.71 | IC90: > 100 µM

CCc1cc2cc(C(=O)Nc3ccc(F)cc3)sc2s1
pIC50: 6.29 | IC90: 0.79 µM

COc1cccc(-c2nnc(SCC(=O)Nc3cc(C)on3)o2)c1
pIC50: 5.24 | IC90: 8.52 µM | CC50: > 40 µM

COC(=O)C(CC(C)C)NC(=O)/C=C/c1ccccc1Cl (stereo not given)
pIC50: 5.33 | IC90: 7.81 µM

CCCNC1=C(N(C(C)=O)c2cccc(F)c2)C(=O)c2ccccc2C1=O
pIC50: 5.56 | IC90: 4.13 µM | CC50: 29.9 µM

CCCn1c(NC(=O)c2ccc(Br)cc2)nc2ccccc21
pIC50: 4.76 | IC90: > 100 µM | CC50: > 40 µM

O=c1c(O)c(-c2cccs2)oc2ccc(Cl)cc12
pIC50: 5.02 | IC90: > 100 µM | CC50: > 40 µM

O=C(/C=C/c1ccccc1F)c1cccc([N+](=O)[O-])c1
pIC50: 5.20 | IC90: 6.73 µM | CC50: > 40 µM

CCOC(=O)c1ccc(NC(=O)CCNC(=O)c2ccc([N+](=O)[O-])cc2)cc1
IC90: > 100 µM
